{"source": "patent US11377442B2", "about": "“Small molecule agonists and antagonists of NR2F6 activity” (ZANDER THERAPEUTICS, INC., priority 2016, dated 2022)", "type_in_all_cases": "cell-based", "key": {"NR2F6": {"target": "T1, NR2F6 (Homo sapiens, UniProt P10588)", "T1 construct": "expressed in transfected cells; also transient transfection", "T1 sequence (P10588 1-404)": "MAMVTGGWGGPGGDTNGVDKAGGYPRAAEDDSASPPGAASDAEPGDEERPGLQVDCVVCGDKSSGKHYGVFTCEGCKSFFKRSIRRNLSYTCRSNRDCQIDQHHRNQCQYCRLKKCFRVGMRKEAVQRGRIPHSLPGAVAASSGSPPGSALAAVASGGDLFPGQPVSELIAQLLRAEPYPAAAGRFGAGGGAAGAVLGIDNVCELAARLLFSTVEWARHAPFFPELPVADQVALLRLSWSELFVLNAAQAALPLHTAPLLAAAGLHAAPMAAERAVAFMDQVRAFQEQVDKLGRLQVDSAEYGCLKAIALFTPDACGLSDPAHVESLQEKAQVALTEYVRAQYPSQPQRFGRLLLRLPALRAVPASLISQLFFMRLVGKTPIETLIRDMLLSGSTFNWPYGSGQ", "experiment": "NR2F6 agonist screening, Firefly signal cmpd/DMSO"}, "Renilla": {"tested_on": "Renilla", "experiment": "Renilla signal in NR2F6 agonist screening, cmpd/DMSO", "conditions": "Renilla, F4"}, "HEK293 pGL4": {"tested_on": "HEK293 pGL4", "experiment": "Firefly_pGL signal, cmpd/DMSO (pGL4 control cells)", "conditions": "Homo sapiens"}, "NR2F6 LBD": {"target": "T2, NR2F6 LBD (Homo sapiens, UniProt P10588)", "T2 construct": "expressed in transfected cells", "T2 sequence (P10588 165-393 limits assumed)": "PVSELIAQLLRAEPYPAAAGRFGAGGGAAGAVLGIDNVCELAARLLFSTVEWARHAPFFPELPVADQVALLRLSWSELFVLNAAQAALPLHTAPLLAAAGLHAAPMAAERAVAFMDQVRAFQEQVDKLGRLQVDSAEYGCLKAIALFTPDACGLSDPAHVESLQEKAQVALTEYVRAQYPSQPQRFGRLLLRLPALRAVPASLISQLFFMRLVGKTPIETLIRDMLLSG", "experiment": "NR2F6 LBD transient transfection", "conditions": "LBD", "summary_of_the_method": "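LBD-transfected cells treated at 40, 10, 2 and 0.5 μM (4 replicates); cytotoxicity measured in parallel, normalized to DMSO (0%) and zero signal (100%). Higher concentrations excluded where signal loss reflected toxicity.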"}, "[1]": {"conditions": "read-out: Renilla, F4, cmpd/DMSO (mean)"}, "[2]": {"conditions": "1% FBS, read-out: Renilla, F4, 1% FBS, cmpd/DMSO (mean)"}, "[3]": {"conditions": "10% FBS, read-out: Renilla, F4, 10% FBS, cmpd/DMSO (mean)"}}, "note": "Like-named read-outs stand apart in the source and are kept apart here.", "data": [{"smiles": "COCCCN[C@H]1CS(=O)(=O)C[C@@H]1S(=O)(=O)c1ccc(Cl)cc1", "note": "[Compound D126]", "values": [{"measurement": "Firefly F4, cmpd/DMSO (mean)", "setting": "NR2F6; 0.5 uM", "value": 1.0}, {"measurement": "Firefly F4, cmpd/DMSO (mean)", "setting": "NR2F6; 2 uM", "value": 1.8}, {"measurement": "Firefly F4, cmpd/DMSO (mean)", "setting": "NR2F6; 10 uM", "value": 4.5}, {"measurement": "Firefly F4, cmpd/DMSO (mean)", "setting": "NR2F6; 40 uM", "value": 2.3}, {"measurement": "F4, Firefly/Renilla for S/B(F4) > 3", "setting": "NR2F6; 1% FBS, 10 uM", "value": 2.0}, {"measurement": "Firefly, F4/pGL4 for S/B(F4) > 3", "setting": "NR2F6; 1% FBS, 10 uM", "value": 1.6}, {"measurement": "F4, Firefly/Renilla for S/B(F4) > 3", "setting": "NR2F6; 10% FBS, 40 uM", "value": 3.0}, {"measurement": "Firefly, F4/pGL4 for S/B(F4) > 3", "setting": "NR2F6; 10% FBS, 40 uM", "value": 2.1}, {"measurement": "Firefly, F4, 1% FBS, cmpd/DMSO (mean)", "setting": "NR2F6; 1% FBS, 0.5 uM", "value": 0.7}, {"measurement": "Firefly, F4, 1% FBS, cmpd/DMSO (mean)", "setting": "NR2F6; 1% FBS, 2 uM", "value": 1.5}, {"measurement": "Firefly, F4, 1% FBS, cmpd/DMSO (mean)", "setting": "NR2F6; 1% FBS, 10 uM", "value": 3.1}, {"measurement": "Firefly, F4, 1% FBS, cmpd/DMSO (mean)", "setting": "NR2F6; 1% FBS, 40 uM", "value": 0.6}, {"measurement": "Firefly, F4, 10% FBS, cmpd/DMSO (mean)", "setting": "NR2F6; 10% FBS, 0.5 uM", "value": 1.4}, {"measurement": "Firefly, F4, 10% FBS, cmpd/DMSO (mean)", "setting": "NR2F6; 10% FBS, 2 uM", "value": 1.0}, {"measurement": "Firefly, F4, 10% FBS, cmpd/DMSO (mean)", "setting": "NR2F6; 10% FBS, 10 uM", "value": 2.9}, {"measurement": "Firefly, F4, 10% FBS, cmpd/DMSO (mean)", "setting": "NR2F6; 10% FBS, 40 uM", "value": 8.3}, {"measurement": "fold induction at 0.5 µM", "setting": "Renilla; [1]", "value": 1.1}, {"measurement": "fold induction at 2 µM", "setting": "Renilla; [1]", "value": 1.2}, {"measurement": "fold induction at 10 µM", "setting": "Renilla; [1]", "value": 1.6}, {"measurement": "fold induction at 40 µM", "setting": "Renilla; [1]", "value": 1.6}, {"measurement": "fold induction at 0.5 µM", "setting": "Renilla; [2]", "value": 1.2}, {"measurement": "fold induction at 2 µM", "setting": "Renilla; [2]", "value": 1.2}, {"measurement": "fold induction at 10 µM", "setting": "Renilla; [2]", "value": 1.5}, {"measurement": "fold induction at 40 µM", "setting": "Renilla; [2]", "value": 1.8}, {"measurement": "fold induction at 0.5 µM", "setting": "Renilla; [3]", "value": 1}, {"measurement": "fold induction at 2 µM", "setting": "Renilla; [3]", "value": 1.1}, {"measurement": "fold induction at 10 µM", "setting": "Renilla; [3]", "value": 1.7}, {"measurement": "fold induction at 40 µM", "setting": "Renilla; [3]", "value": 2.8}, {"measurement": "fold induction at 0.5 µM", "setting": "HEK293 pGL4; HEK293, 0.5 uM, pGL4, read-out: Firefly pGL4, cmpd/DMSO (mean)", "value": 1.2}, {"measurement": "fold induction at 2 µM", "setting": "HEK293 pGL4; HEK293, 2 uM, pGL4, read-out: Firefly pGL4, cmpd/DMSO (mean)", "value": 1.2}, {"measurement": "fold induction at 10 µM", "setting": "HEK293 pGL4; HEK293, 10 uM, pGL4, read-out: Firefly pGL4, cmpd/DMSO (mean)", "value": 3}, {"measurement": "fold induction at 40 µM", "setting": "HEK293 pGL4; HEK293, 40 uM, pGL4, read-out: Firefly pGL4, cmpd/DMSO (mean)", "value": 0.8}, {"measurement": "fold induction at 0.5 µM", "setting": "HEK293 pGL4; HEK293, pGL4, 1% FBS, 0.5 uM, read-out: Firefly, pGL4, 1% FBS, cmpd/DMSO (mean)", "value": 1.4}, {"measurement": "fold induction at 2 µM", "setting": "HEK293 pGL4; HEK293, pGL4, 1% FBS, 2 uM, read-out: Firefly, pGL4, 1% FBS, cmpd/DMSO (mean)", "value": 1.8}, {"measurement": "fold induction at 10 µM", "setting": "HEK293 pGL4; HEK293, pGL4, 1% FBS, 10 uM, read-out: Firefly, pGL4, 1% FBS, cmpd/DMSO (mean)", "value": 2}, {"measurement": "fold induction at 40 µM", "setting": "HEK293 pGL4; HEK293, pGL4, 1% FBS, 40 uM, read-out: Firefly, pGL4, 1% FBS, cmpd/DMSO (mean)", "value": 1.6}, {"measurement": "fold induction at 0.5 µM", "setting": "HEK293 pGL4; HEK293, pGL4, 10% FBS, 0.5 uM, read-out: Firefly, pGL4, 10% FBS, cmpd/DMSO (mean)", "value": 1.1}, {"measurement": "fold induction at 2 µM", "setting": "HEK293 pGL4; HEK293, pGL4, 10% FBS, 2 uM, read-out: Firefly, pGL4, 10% FBS, cmpd/DMSO (mean)", "value": 1.1}, {"measurement": "fold induction at 10 µM", "setting": "HEK293 pGL4; HEK293, pGL4, 10% FBS, 10 uM, read-out: Firefly, pGL4, 10% FBS, cmpd/DMSO (mean)", "value": 1.8}, {"measurement": "fold induction at 40 µM", "setting": "HEK293 pGL4; HEK293, pGL4, 10% FBS, 40 uM, read-out: Firefly, pGL4, 10% FBS, cmpd/DMSO (mean)", "value": 3.9}, {"measurement": "Firefly LBD, cmpd/DMSO (mean)", "setting": "NR2F6 LBD; 0.5 uM", "value": 1.6}, {"measurement": "Firefly LBD, cmpd/DMSO (mean)", "setting": "NR2F6 LBD; 2 uM", "value": 1.5}, {"measurement": "Firefly LBD, cmpd/DMSO (mean)", "setting": "NR2F6 LBD; 10 uM", "value": 2.9}, {"measurement": "Firefly LBD, cmpd/DMSO (mean)", "setting": "NR2F6 LBD; 40 uM", "value": 2.1}]}]}
